Measured values taken from US20150328109A1, “DERMAL COMPOSITIONS CONTAINING UNNATURAL HYGROSCOPIC AMINO ACIDS” (MEDPHARM LIMITED, priority 2012, published 2015).

What was measured:
[1] = Snake study: water uptake into snake skin after treatment with amino acid solution; design: species or system Elaphe guttata, the American corn snake; settings: 24 h treatment with 1.33M amino acid solution, dried, then 40% RH
Procedure: • All experiments were performed in triplicate (i.e. three separate solutions, three pieces of skin, one per solution). […] Each piece was weighed and placed directly into one the of the amino acid solutions, one piece of snake skin per solution. • After 1 hour, the snake skin was removed from the solution and blotted dry on filter paper. The weight of the snake skin was recorded before the same snake skin was returned to the amino acid solution. • After an additional 23 hours (24 hours in total), the snake skin was again blotted dry on filter paper and weighed. • The snake skin, now having absorbed the test amino acid, was then placed in a vacuum desiccator over silica (0% RH) for 48 hours before being weighed.
• A 10% w/w concentration solution of each compound is made by stirring the compound (100 mg) in water (1 mL). Three separate solutions of each compound are made separately so that the experiment can be carried out in triplicate simultaneously. […] The weight of the snake skin is recorded before the same snake skin is returned to the same compound solution. • After an additional 23 hours (24 hours in total), the snake skin is again blotted dry on filter paper and weighed. • The snake skin is then placed in a vacuum desiccator over silica (0% relative humidity (RH)) for 48 hours before being weighed. […]

[2] = test system: RHE tissues; experiment: RHE irritation assessment Method 1: SkinEthic Skin Irritation Test-42 bis assay (MTT), plus 24 h contact time; type: cell-based, human; settings: 42 min and 24 h exposure; 5 and 1% w/v α-H-G, 10 and 1% w/v L-h-S in water
Text: The purpose of this experiment was to investigate the potential of alpha-hydroxyglycine (α-H-G) and L-homoserine (L-h-S) to cause skin irritation. The method was based on the validated SOP for the “The SkinEthic Skin Irritation Test-42 bis assay” in accordance to OECD guideline Test No. 439: In Vitro Skin Irritation. The protocol is provided in Section 1.2. Further details on the method can be found in the SkinEthic™ RHE SOP, Version 2.1 (July 2009), SkinEthic skin irritation test-42 bis test method for the prediction of acute skin irritation of chemicals: 42 minutes application+42 hours post-incubation. Available at: [http://ecvam.jrc.ec.europa.eu].
In addition, a further experiment was performed where the contact time of the test solution with the tissue was increased to 24 h. Following which point an MTT assay was used to determine the tissue viability and the test solutions potential to cause irritation.
The following steps were completed on receipt of the tissues: • (i) Wells of 6-well plates were filled with 1 mL growth culture medium. • (ii) Tissue were removed from their packaging, cleaned to remove the transport agarose and inspected for signs of damage; damaged tissues were discarded. • (iii) The tissue were transferred into the growth culture medium then incubated at 37° C., 5% CO2 until application of the test solution.
1.2.1.1.6 Applications of 5 and 1% w/v α-H-G and 10 and 1% w/v L-h-S and Controls • (i) 16 μL±0.5 μL of the test solutions (5% w/v α-hydroxyglycine (α-H-G) in water, 1% w/v α-hydroxyglycine (α-H-G) in water, 10% w/v L-homoserine (L-h-S) in water, 1% w/v L-homoserine (L-h-S) in water) and negative (PBS) and positive (5% SDS) controls were dispensed onto the top of the epidermal tissue, using positive displacement pipette. […]

For `N[C@@H](CCO)C(=O)O` [L-homoserine], the “average percentage weight increase after 24 h at 40% RH” value [1] was “particularly advantageous properties” and the “skin irritation potential (viability below 50% of negative control = irritant)” value [2] was “non-irritants”.
